Reference: patent US20100137676A1, “N-ACETYLCYSTEINE AMIDE (NAC AMIDE) FOR TREATMENT OF OXIDATIVE STRESS ASSOCIATED WITH INFERTILITY” (priority 2005, published 2010)

Key:
porcine oocytes = assay: Glutathione assay: intracellular GSH concentration per oocyte after supplementation of maturation medium; type: cell-based; details: supplementation 1.0 mM; for GSH concentration/oocyte: porcine oocytes, control 3.19
Description: (§1) This Example describes an evaluation of the effects of NAC amide, glutathione (GSH) and N-acetylcysteine (NAC) supplementation to incubation and culture media during porcine oocyte maturation, fertilization and embryo culture on various measures of fertilization and embryo development, as well as on the intracellular concentration of GSH.
(§2) Experimental Design: Three trials were conducted, each trial utilizing 30 porcine oocytes per treatment group (90 total oocytes per each of four treatment groups). Oocytes were purchased from Trans Ova Genetics, Sioux City, Iowa. Treatment groups were: 1) Control (no supplemental anti-oxidants); 2) GSH supplementation (1.0 mM); 3) NAC supplementation (1.0 mM); and 4) NAC amide supplementation (1.0 mM).
(§3) In vitro Maturation: Oocytes were maturated for 20 to 24 hours in tissue culture medium 199 with Earle's salts, 0.01 U/mL LH and FSH, 10 ng/mL EGF, antibiotics, and 10% fetal calf serum under mineral oil (Specialty Media, Phillipsburg, N.J.) at 39° C. in an atmosphere of 5% CO2 and then for an additional 20 to 24 h without hormones.
Glutathione Assay: Oocytes were washed in PBS, frozen, and ruptured using a blunt glass rod in phosphoric acid. The assay was performed as described previously (B. D. Whitaker and J. W. Knight, 2004, Theriogenology, 62:311-322) and the amount of GSH was determined using a standard curve of concentration GSH versus rate of change in absorbency.

[1] = tested on: porcine oocytes / embryos; assay: Embryo development to 2-cell and blastocyst stage after IVF in supplemented media (Example 1); type: cell-based; details: for % embryos reaching 2-cell stage of development / % embryos reaching blastocyst stage of development (of those in observed in the 2-cell stage): supplementation 1.0 mM, IVF; for % embryos reaching 2-cell stage of development: control 19; for % embryos reaching blastocyst stage of development (of those in observed in the 2-cell stage): culture to blastocyst stage, control 40
Description: as §1, §2, §3
(§4) In vitro Fertilization (IVF) of Oocytes: Cumulus cells by were removed by agitation with 0.1% hyaluronidase, washed and placed in Tris-fertilization medium (113.1 mM NaCl, 3 mM KCl, 7.5 mM CaCl2.2H2O, 20 mM Tris, 11 mM D (+)-glucose, 5 mM sodium pyruvate, 1 mg/mL BSA, 2 mM caffeine) with mineral oil overlay and freeze-thawed spermatozoa were added at a concentration of 2000 spermatozoa/oocyte. The gametes were incubated at 39° C. in an atmosphere of 5% CO2 for approximately 6 hours.
In vitro Culture: Putative zygotes were washed and incubated in NCSU-23 culture medium (108.73 mM NaCl, 4.78 mM KCl, 1.19 mM KH2PO4, 1.19 mM MgSO4.7H2O, 5.5 mM glucose, 1 mM glutamine, 7 mM taurine 5 mM hypotaurine, 25.07 mM NaHCO3, 1.7 mM CaCl2.2H2O, 75 μg/mL Penicillin G, 50 μg/mL Streptomycin, 4 mg/mL BSA, pH 7.4) with mineral oil overlay at 39° C. in an atmosphere of 5% CO2 for 48 hours. After 48 hours, embryos that had undergone the first cell division were placed in fresh NCSU 23 culture media in the same manner as described above until blastocyst formation, 144 hours post-IVF.
The remaining zygotes were cultured through the blastocyst stage of development ([…]) in their respective media and their development and viability progress was recorded (Table 2). NAC amide supplementation of the culture medium enhanced the development of zygotes to the 2-cell stage and further aided the subsequent final percentage of those embryos reaching the 2-cell stage that continued development onto the blastocyst stage (the endpoint of in vitro analysis).

porcine putative zygotes = assay: In vitro fertilization parameter evaluation by nuclear staining of putative zygotes; type: cell-based; details: 12 hours after IVF; n=4 zygotes per group; preliminary, subjective
Description: as §2, §4
In vitro Fertilization Parameter Evaluation: Fertilization was analyzed 12 hours after IVF by fixing the oocytes on a microscope slide with 25% (v:v) acetic acid in ethanol at room temperature for 48 hours. Oocytes were stained with 1% orcein in 45% (v:v) acetic acid and examined using a phase-contrast microscope at 400× magnification.
Fertilization parameters were subjectively examined by nuclear staining samples (n=4) of putative zygotes from each of the treatment groups 12 hours after IVF was complete (Illustration 1, * indicates pronucleus). In the preliminary analysis, only a small number of zygotes were subjected to staining, since the intent of the studies described herein was to assess the number of zygotes that continued development to the 2-cell and blastocyst stages. This analysis was simply to see if any obvious anomalies were occurring.

[2] = tested on: porcine oocytes / embryos; assay: Embryo development after IVF with NAC amide supplementation (Example 4); type: cell-based; details: of 70 oocytes
Description: (§5) This Example investigates the effects of NAC amide supplementation to culture media during porcine oocyte maturation, fertilization, and embryo culture on intracellular concentrations of GSH after oocyte maturation, IVF parameters, success of intracytoplasmic sperm injection (ICSI), and embryo development following ICSI and pronuclear microinjection.
(§6) All chemicals, unless otherwise specified, were obtained from Sigma Chemical Company (St. Louis, Mo.) and were of embryo grade quality. Dr. Glenn Goldstein and associates provided the NAC amide. Oocytes (BoMed, Madison, Wis.) were maturated for 20 to 24 h in tissue culture medium 199 supplemented with Earle's salts, 0.01 U/mL LH and FSH, antibiotics, and 10% fetal calf serum under mineral oil (Specialty Media, Phillipsburg, N.J.) at 39° C. in an atmosphere of 5% CO2 and then for an additional 20 to 24 h without hormones.
as §4, with “Cumulus” for “In vitro Fertilization (IVF) of Oocytes: Cumulus”, “cells” for “cells by”, “D(+)-glucose,” for “D (+)-glucose,”, “frozen-thawed” for “freeze-thawed”, “h. […]” for “hours.”

[3] = tested on: porcine oocytes / embryos; assay: Embryo development after intracytoplasmic sperm injection (ICSI) with NAC amide supplementation (Example 4); type: cell-based; details: of 24 oocytes
Description: as §5, §6
Cumulus cells were removed by agitation with 0.1% hyaluronidase, washed and placed in microdrops of NCSU-23 culture medium (108.73 mM NaCl, 4.78 mM KCl, 1.19 mM KH2PO4, 1.19 mM MgSO4.7H2O, 5.5 mM glucose, 1 mM glutamine, 7 mM taurine 5 mM hypotaurine, 25.07 mM NaHCO3, 1.7 mM CaCl2.2H2O, 75 μg/mL Penicillin G, 50 μg/mL Streptomycin, 4 mg/mL BSA, pH 7.4) with mineral oil overlay at 39° C. after centrifugation at 15000×g. Frozen-thawed sperm were then placed in an adjacent microdrop. […]

[4] = tested on: mammalian red blood cells (RBCs); details: cited from earlier work
[5] = cell-free system; cited from earlier work

Row | Molecule | GSH concentration/oocyte (porcine oocytes) | % embryos reaching 2-cell stage of development [1] | % embryos reaching blastocyst stage of development (of those in observed in the 2-cell stage) [1] | changes on fertilization events (nuclear staining) (porcine putative zygotes) | greater increase in intracellular GSH compared with supplementation of GSH per se (porcine oocytes) | greater intracellular GSH concentration compared with NAC supplementation (porcine oocytes) | increase in intracellular GSH concentration compared with control (porcine oocytes) | intracellular GSH concentration, statistical comparison with GSH (porcine oocytes; P<0.05) | intracellular GSH concentration, statistical comparison with control (porcine oocytes; P<0.05) | % of embryos developing to the 2-cell and blastocyst stages, statistical comparison ([1]; 2-cell P<0.05, blastocyst P<0.10) | # of Embryos reaching blastocyst stage of development ([2]; control 6 of 67) | # of Embryos reaching 2-cell stage of development ([2]; control 10 of 67) | # of Embryos reaching blastocyst stage of development ([3]; control 2 of 25) | # of Embryos reaching 2-cell stage of development ([3]; control 5 of 25) | hemoglobin oxidation ([4]; RBCs) | tert.-butylhydroxyperoxide (BuOOH)-induced intracellular oxidation ([4]; RBCs) | restoration of thiol-depleted RBCs ([4]; externally applied, compared with NAC) | reaction with oxidized glutathione (GSSG) [5]
1 | N[C@@H](CCC(=O)N[C@@H](CS)C(=O)NCC(=O)O)C(=O)O [GSH, glutathione] | 4.18 pmol | 25% | 40% | did not have any noticeable changes | – | – | – | – | – | – | – | – | – | – | – | – | – | –
2 | N-acetylcysteine amide [NAC amide] | 7.03 pmol | 45% | 85% | did not have any noticeable changes | 40% | 15% | 2.2 fold | significantly (P<0.05) higher than GSH | significantly (P<0.05) higher than control | significantly greater % of embryos | 12 | 22 | 5 | 12 | protected hemoglobin from oxidation | inhibit | significantly greater than that found using NAC | react with oxidized glutathione (GSSG) to generate reduced glutathione (GSH)
3 | CC(=O)N[C@@H](CS)C(=O)O [NAC, N-acetylcysteine] | 6.00 pmol | 30% | 55% | did not have any noticeable changes | – | – | – | – | significantly (P<0.05) higher than control | – | – | – | – | – | – | – | – | –
